Measurements: ChEMBL document CHEMBL1201862, “PubChem BioAssay data set” (2004)
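Five concentrations, 48 hours, 96-well plates. GI50 = concentration required for 50% inhibition of growth.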 Calls of active or inactive are those of the source. Rule as the data show it: active = GI50 up to about 1.1 µM and inactive = higher.

Tests used:
Assay in all cases: growth of human tumour cells (NCI), 48 h
HCC 2998 = test system: HCC 2998
HOP-92 = test system: HOP-92
SK-MEL-2 = test system: SK-MEL-2
IGROV-1 = test system: IGROV-1
SW-620 = test system: SW-620
A549 = test system: A549
RPMI-8226 = test system: RPMI-8226
HOP-62 = test system: HOP-62
Malme-3M = test system: Malme-3M
HCT-116 = test system: HCT-116
HT-29 = test system: HT-29
SNB-19 = test system: SNB-19
K562 = test system: K562
NCI-H226 = test system: NCI-H226
U-251 = test system: U-251
NCI-H23 = test system: NCI-H23
M14 = test system: M14
NCI/ADR-RES = test system: NCI/ADR-RES
OVCAR-8 = test system: OVCAR-8

Compound	GI50 (HCC 2998)	GI50 (HOP-92)	GI50 (SK-MEL-2)	GI50 (IGROV-1)	GI50 (SW-620)	GI50 (A549)	GI50 (RPMI-8226)	GI50 (HOP-62)	GI50 (Malme-3M)	GI50 (HCT-116)	GI50 (HT-29)	GI50 (SNB-19)	GI50 (K562)	GI50 (NCI-H226)	GI50 (U-251)	GI50 (NCI-H23)	GI50 (M14)	GI50 (NCI/ADR-RES)	GI50 (OVCAR-8)
O=C(/C=C/c1ccc(O)c(O)c1O)OCCc1ccccc1	> 100 µM (inactive)	56.1 µM (inactive)	61.9 µM (inactive)	32.9 µM (inactive)	20.9 µM (inactive)	26.2 µM (inactive)	21.2 µM (inactive)	26.2 µM (inactive)	> 100 µM (inactive)	13.5 µM (inactive)	22.7 µM (inactive)	49.9 µM (inactive)	11.6 µM (inactive)	27.7 µM (inactive)	26.1 µM (inactive)	22.9 µM (inactive)	20 µM (inactive)	29.8 µM (inactive)	
Cc1ccc(N2CCC3(CC2)OCCO3)cc1	> 100 µM (inactive)	> 100 µM (inactive)	> 100 µM (inactive)	> 100 µM (inactive)	> 100 µM (inactive)	> 100 µM (inactive)	> 100 µM (inactive)	> 100 µM (inactive)	> 100 µM (inactive)	> 100 µM (inactive)	> 100 µM (inactive)	> 100 µM (inactive)	> 100 µM (inactive)	> 100 µM (inactive)	> 100 µM (inactive)	> 100 µM (inactive)	> 100 µM (inactive)	> 100 µM (inactive)	> 100 µM (inactive)
C(=C\C(SCc1ccccc1)SCc1ccccc1)/c1ccccc1	> 10 µM (inactive)	> 10 µM (inactive)	> 10 µM (inactive)	> 10 µM (inactive)	> 10 µM (inactive)	> 10 µM (inactive)	> 10 µM (inactive)	> 10 µM (inactive)	> 10 µM (inactive)	> 10 µM (inactive)	> 10 µM (inactive)	> 10 µM (inactive)	> 10 µM (inactive)	> 10 µM (inactive)	> 10 µM (inactive)	> 10 µM (inactive)	> 10 µM (inactive)	> 10 µM (inactive)	> 10 µM (inactive)
N#CC1=C(N)OC2=C(CCCc3ccc([N+](=O)[O-])cc32)C1c1ccc(Cl)cc1 (stereo not given)	8.02 µM (inactive)	37 µM (inactive)	13.4 µM (inactive)	8.71 µM (inactive)	9.35 µM (inactive)	6.7 µM (inactive)	4.33 µM (inactive)	19.7 µM (inactive)	11.3 µM (inactive)	3.3 µM (inactive)	4.1 µM (inactive)	32.9 µM (inactive)	3.88 µM (inactive)	17 µM (inactive)	4.57 µM (inactive)	5.11 µM (inactive)	16.4 µM (inactive)	6.28 µM (inactive)	6.58 µM (inactive)
N#Cc1c(C#N)c(-c2ccco2)n(/N=C/c2ccco2)c1N	> 100 µM (inactive)	11.2 µM (inactive)	> 100 µM (inactive)	35.6 µM (inactive)	> 100 µM (inactive)	47.5 µM (inactive)	> 100 µM (inactive)	28.1 µM (inactive)	> 100 µM (inactive)	52.8 µM (inactive)	> 100 µM (inactive)	24.9 µM (inactive)	> 100 µM (inactive)	18.8 µM (inactive)	24.6 µM (inactive)	> 100 µM (inactive)	> 100 µM (inactive)	65.9 µM (inactive)	23.3 µM (inactive)
O=C1Nc2ccccc2C(=O)/C1=C/NC(=S)NC1CCCCC1	> 100 µM (inactive)	> 100 µM (inactive)	> 100 µM (inactive)	> 100 µM (inactive)	> 100 µM (inactive)	> 100 µM (inactive)	> 100 µM (inactive)	> 100 µM (inactive)		> 100 µM (inactive)	> 100 µM (inactive)	> 100 µM (inactive)	> 100 µM (inactive)	> 100 µM (inactive)	> 100 µM (inactive)	> 100 µM (inactive)	> 100 µM (inactive)	> 100 µM (inactive)	> 100 µM (inactive)
Oc1ccc(-c2nc3cc(F)ccc3s2)cc1	13.5 µM (inactive)	21.3 µM (inactive)	19.1 µM (inactive)	17.5 µM (inactive)	41.5 µM (inactive)	18.4 µM (inactive)	24 µM (inactive)	24.7 µM (inactive)	16.5 µM (inactive)	17.5 µM (inactive)	23.3 µM (inactive)	36.7 µM (inactive)	22.6 µM (inactive)	17.3 µM (inactive)	19.9 µM (inactive)	32.3 µM (inactive)	20 µM (inactive)	20 µM (inactive)	31.6 µM (inactive)
Cc1cc(S(=O)(=O)/N=C(\NN)Nc2ccc(Cl)cc2)c(S)cc1Cl	11.2 µM (inactive)	34.4 µM (inactive)	19.2 µM (inactive)	3.54 µM (inactive)	11.1 µM (inactive)	11 µM (inactive)	12.3 µM (inactive)	10.8 µM (inactive)	16.9 µM (inactive)	3.03 µM (inactive)	16.1 µM (inactive)	11.5 µM (inactive)	2.13 µM (inactive)	16 µM (inactive)	6.87 µM (inactive)		8.65 µM (inactive)	2.71 µM (inactive)	12.4 µM (inactive)
COc1cc(OCc2ccccc2)c2c(CCC(=O)O)cc(=O)oc2c1.COc1cc(OCc2ccccc2)cc2oc(=O)cc(CCC(=O)O)c12	56.5 µM (inactive)	32 µM (inactive)	30.1 µM (inactive)	51.2 µM (inactive)	> 100 µM (inactive)	43.3 µM (inactive)	57.3 µM (inactive)		> 100 µM (inactive)	54 µM (inactive)	36.7 µM (inactive)	92.3 µM (inactive)	49 µM (inactive)	87.3 µM (inactive)	55 µM (inactive)	33.9 µM (inactive)	92.5 µM (inactive)	52.7 µM (inactive)	37 µM (inactive)
CC(=O)O[C@H]1C(=O)[C@@]2(C)[C@H]([C@H](OC(=O)c3ccccc3)[C@]3(O)C[C@H](OC(=O)[C@H](O)[C@@H](NC(=O)c4cccc(N=[N+]=[N-])c4)c4ccccc4)C(C)=C1C3(C)C)[C@]1(OC(C)=O)CO[C@@H]1C[C@@H]2O	0.0634 µM (active)	0.0109 µM (active)		0.00679 µM (active)	0.00621 µM (active)	0.0108 µM (active)	< 0.0025 µM (active)	0.00813 µM (active)	0.00711 µM (active)	< 0.0025 µM (active)	< 0.0025 µM (active)	0.0129 µM (active)	< 0.0025 µM (active)	0.00855 µM (active)	0.00629 µM (active)	0.00641 µM (active)	0.00908 µM (active)	8.32 µM (inactive)	0.00798 µM (active)
O=C1CC[C@@]2(O)[C@H]3Cc4ccc(-c5cccc(O)c5)c5c4[C@@]2(CCN3CC2CC2)[C@H]1O5	16.4 µM (inactive)	25.7 µM (inactive)	1.51 µM (inactive)	23.6 µM (inactive)	> 35.1 µM (inactive)	9.55 µM (inactive)	23.3 µM (inactive)	24.8 µM (inactive)		11.4 µM (inactive)	11.3 µM (inactive)	4.3 µM (inactive)	21.9 µM (inactive)	29.3 µM (inactive)	8.38 µM (inactive)	27 µM (inactive)	12.1 µM (inactive)	15.8 µM (inactive)	19.6 µM (inactive)
CCCNC(=O)N1CC(CN2CCN(c3ccccc3)CC2)O/C1=N/C(=O)Nc1ccccc1 (stereo not given)	> 100 µM (inactive)	89.3 µM (inactive)	45.3 µM (inactive)	> 100 µM (inactive)	> 100 µM (inactive)	63.4 µM (inactive)	> 100 µM (inactive)	> 100 µM (inactive)	97.1 µM (inactive)	> 100 µM (inactive)	68.7 µM (inactive)	> 100 µM (inactive)	> 100 µM (inactive)	2.09 µM (inactive)	> 100 µM (inactive)	73.8 µM (inactive)	65.9 µM (inactive)	50.6 µM (inactive)	
c1ccc(-c2csc3c2-n2cccc2C3N2CCCC2)cc1 (stereo not given)	26.1 µM (inactive)	21 µM (inactive)	> 100 µM (inactive)	21.1 µM (inactive)	44.2 µM (inactive)	26.4 µM (inactive)	20.8 µM (inactive)	26.5 µM (inactive)	23.9 µM (inactive)	43.8 µM (inactive)	28.2 µM (inactive)	19.6 µM (inactive)	22.6 µM (inactive)	85.1 µM (inactive)	11.1 µM (inactive)	20.9 µM (inactive)		> 100 µM (inactive)	26.8 µM (inactive)
C#CCOC(=O)C(N)CCCNC(=N)N (stereo not given)	> 100 µM (inactive)	> 100 µM (inactive)	> 100 µM (inactive)	> 100 µM (inactive)	> 100 µM (inactive)	> 100 µM (inactive)	> 100 µM (inactive)	> 100 µM (inactive)	> 100 µM (inactive)	> 100 µM (inactive)	> 100 µM (inactive)	> 100 µM (inactive)		> 100 µM (inactive)	> 100 µM (inactive)	> 100 µM (inactive)	> 100 µM (inactive)	> 100 µM (inactive)	> 100 µM (inactive)
CC(=O)CC12NC(=O)N(C)N=C1N(C)C(=O)N(C)C2=O (stereo not given)	82.8 µM (inactive)	95.1 µM (inactive)		> 100 µM (inactive)	33.9 µM (inactive)	> 100 µM (inactive)	58.1 µM (inactive)	51.6 µM (inactive)	13.4 µM (inactive)	35.7 µM (inactive)	35.9 µM (inactive)	> 10 µM (inactive)	40.1 µM (inactive)	> 100 µM (inactive)	34.4 µM (inactive)	38.7 µM (inactive)	73.5 µM (inactive)	29.4 µM (inactive)	32.1 µM (inactive)
